# Measured values from patent US12319672B2, “Alpha-D-galactopyranoside derivatives” (Idorsia Pharmaceuticals Ltd, priority 2019, dated 2025).
# pIC50: −log10 of the molar value.
# Tests used:
# human Gal-3 (hGal-3) = human Gal-3 (hGal-3) (Homo sapiens (Human), UniProt P17931); test: Competitive binding assay: binding of biotinylated hGal-3 to microplate-adsorbed asialofetuin (ASF); conditions: Activity on hGal-3; mean values of several measurements
# In short: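 For hGal-1, a variant with all six cysteines replaced by serines is preferred. Either galectin, biotinylated at 300-1000 ng/mL, competes with compound for microplate-bound ASF over 3 h at 4° C; peroxidase/ABTS detection gives IC50, averaged.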
# human Gal-1 (hGal-1) = test: Competitive binding assay: binding of biotinylated hGal-1 to microplate-adsorbed asialofetuin (ASF); conditions: Activities on hGal-1; mean values of several measurements
# Chain of human Gal-1 (hGal-1) (P09382 2-135 limits assumed): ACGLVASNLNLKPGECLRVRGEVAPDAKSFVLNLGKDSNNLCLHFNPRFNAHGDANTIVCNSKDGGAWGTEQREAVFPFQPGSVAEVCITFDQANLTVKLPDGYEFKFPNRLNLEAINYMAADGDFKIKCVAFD
# In short: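 Spectrophotometric readout (streptavidin-peroxidase, ABTS) of biotinylated galectin retained on ASF-coated wells. Biotinylated hGal-1 or hGal-3, 300-1000 ng/mL, co-incubated with test compound 3 h at 4° C, then washed. Mean IC50 from repeat runs.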
# Chain of human Gal-3 (hGal-3) (P17931 whole entry): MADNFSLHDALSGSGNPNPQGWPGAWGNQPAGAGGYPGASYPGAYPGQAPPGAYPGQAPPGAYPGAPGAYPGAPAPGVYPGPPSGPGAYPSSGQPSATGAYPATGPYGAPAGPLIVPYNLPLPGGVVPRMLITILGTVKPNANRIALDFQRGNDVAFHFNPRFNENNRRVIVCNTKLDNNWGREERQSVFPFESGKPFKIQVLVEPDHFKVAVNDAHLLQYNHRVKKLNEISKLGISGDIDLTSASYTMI
SMILES,pIC50 (human Gal-3 (hGal-3)),pIC50 (human Gal-1 (hGal-1))
"CO[C@@H]1[C@@H](n2cc(-c3cc(F)c(F)c(F)c3)nn2)[C@@H](O)[C@@H](CO)O[C@@H]1Cn1cc(C2(O)CCCC2)nn1 [Example 4.41, (2R,3R,4S,5R,6R)-6-((4-(1-hydroxycyclopentyl)-1H-1,2,3-triazol-1-yl)methyl)-2-(hydroxymethyl)-5-methoxy-4-(4-(3,4,5-trifluorophenyl)-1H-1,2,3-triazol-1-yl)tetrahydro-2H-pyran-3-ol]",6.47,5.60
"CO[C@@H]1[C@@H](n2cc(-c3cc(F)c(F)c(F)c3)nn2)[C@@H](O)[C@@H](CO)O[C@@H]1Cn1cc(C2(O)CCC2)nn1 [Example 4.43, (2R,3R,4S,5R,6R)-6-((4-(1-hydroxycyclobutyl)-1H-1,2,3-triazol-1-yl)methyl)-2-(hydroxymethyl)-5-methoxy-4-(4-(3,4,5-trifluorophenyl)-1H-1,2,3-triazol-1-yl)tetrahydro-2H-pyran-3-ol]",6.52,5.35
"CO[C@@H]1[C@@H](n2cc(-c3cc(F)c(F)c(F)c3)nn2)[C@@H](O)[C@@H](CO)O[C@@H]1Cc1cn(C(C)(C)C)nn1 [Example 4.45, (2R,3R,4S,5R,6R)-6-((1-(tert-butyl)-1H-1,2,3-triazol-4-yl)methyl)-2-(hydroxymethyl)-5-methoxy-4-(4-(3,4,5-trifluorophenyl)-1H-1,2,3-triazol-1-yl)tetrahydro-2H-pyran-3-ol]",7.07,5.95
"CO[C@@H]1[C@@H](n2cc(-c3cc(F)c(F)c(F)c3)nn2)[C@@H](O)[C@@H](CO)O[C@@H]1Cn1cc(C2(C)CCCC2)nn1 [Example 4.49, (2R,3R,4S,5R,6R)-2-(hydroxymethyl)-5-methoxy-6-((4-(1-methylcyclopentyl)-1H-1,2,3-triazol-1-yl)methyl)-4-(4-(3,4,5-trifluorophenyl)-1H-1,2,3-triazol-1-yl)tetrahydro-2H-pyran-3-ol]",6.62,5.41
"CO[C@@H]1[C@@H](n2cc(-c3cc(F)c(F)c(F)c3)nn2)[C@@H](O)[C@@H](CO)O[C@@H]1Cn1cc(C2(C#N)CCCC2)nn1 [Example 4.50, 1-(1-(((2R,3R,4S,5R,6R)-5-hydroxy-6-(hydroxymethyl)-3-methoxy-4-(4-(3,4,5-trifluorophenyl)-1H-1,2,3-triazol-1-yl)tetrahydro-2H-pyran-2-yl)methyl)-1H-1,2,3-triazol-4-yl)cyclopentane-1-carbonitrile]",6.48,5.37
"CO[C@@H]1[C@@H](n2cc(-c3cc(F)c(F)c(F)c3)nn2)[C@@H](O)[C@@H](CO)O[C@@H]1Cn1cc(C2(C)CCOCC2)nn1 [Example 4.51, (2R,3R,4S,5R,6R)-2-(hydroxymethyl)-5-methoxy-6-((4-(4-methyltetrahydro-2H-pyran-4-yl)-1H-1,2,3-triazol-1-yl)methyl)-4-(4-(3,4,5-trifluorophenyl)-1H-1,2,3-triazol-1-yl)tetrahydro-2H-pyran-3-ol]",6.80,5.80
"CO[C@@H]1[C@@H](n2cc(-c3ccc(C)c(F)c3F)nn2)[C@@H](O)[C@@H](CO)O[C@@H]1Cn1cc(C(C)(C)C)nn1 [Example 4.54, (2R,3R,4S,5R,6R)-6-((4-(tert-butyl)-1H-1,2,3-triazol-1-yl)methyl)-4-(4-(2,3-difluoro-4-methylphenyl)-1H-1,2,3-triazol-1-yl)-2-(hydroxymethyl)-5-methoxytetrahydro-2H-pyran-3-ol]",7.34,5.82
"CO[C@@H]1[C@@H](n2cc(-c3ccc(Cl)c(F)c3F)nn2)[C@@H](O)[C@@H](CO)O[C@@H]1Cn1cc(C(C)(C)C)nn1 [Example 4.55, (2R,3R,4S,5R,6R)-6-((4-(tert-butyl)-1H-1,2,3-triazol-1-yl)methyl)-4-(4-(4-chloro-2,3-difluorophenyl)-1H-1,2,3-triazol-1-yl)-2-(hydroxymethyl)-5-methoxytetrahydro-2H-pyran-3-ol]",7.51,6.02
"CO[C@@H]1[C@@H](n2cc(-c3cc(F)c(F)c(F)c3)nn2)[C@@H](O)[C@@H](CO)O[C@@H]1C[C@H]1CN(C2CCN(C(C)=O)CC2)C(=O)O1 [Example 5.06, (S)-3-(1-acetylpiperidin-4-yl)-5-(((2R,3R,4S,5R,6R)-5-hydroxy-6-(hydroxymethyl)-3-methoxy-4-(4-(3,4,5-trifluorophenyl)-1H-1,2,3-triazol-1-yl)tetrahydro-2H-pyran-2-yl)methyl)oxazolidin-2-one]",7.02,6.57
"CO[C@@H]1[C@@H](n2cc(-c3cc(F)c(F)c(F)c3)nn2)[C@@H](O)[C@@H](CO)O[C@@H]1C[C@H]1CN(C2CCN(S(C)(=O)=O)CC2)C(=O)O1 [Example 5.07, (S)-5-(((2R,3R,4S,5R,6R)-5-hydroxy-6-(hydroxymethyl)-3-methoxy-4-(4-(3,4,5-trifluorophenyl)-1H-1,2,3-triazol-1-yl)tetrahydro-2H-pyran-2-yl)methyl)-3-(1-(methylsulfonyl)piperidin-4-yl)oxazolidin-2-one]",6.55,5.12
"CO[C@@H]1[C@@H](n2cc(-c3cc(F)c(F)c(F)c3)nn2)[C@@H](O)[C@@H](CO)O[C@@H]1C[C@@H]1CN(C2CCN(S(C)(=O)=O)CC2)C(=O)O1 [Example 5.08, (R)-5-(((2R,3R,4S,5R,6R)-5-hydroxy-6-(hydroxymethyl)-3-methoxy-4-(4-(3,4,5-trifluorophenyl)-1H-1,2,3-triazol-1-yl)tetrahydro-2H-pyran-2-yl)methyl)-3-(1-(methylsulfonyl)piperidin-4-yl)oxazolidin-2-one]",7.74,6.80

# Other lines, results leading:
pIC50 (human Gal-3 (hGal-3)),pIC50 (human Gal-1 (hGal-1)),SMILES
6.80,5.41,"CO[C@@H]1[C@@H](n2cc(-c3cc(F)c(F)c(F)c3)nn2)[C@@H](O)[C@@H](CO)O[C@@H]1Cn1cc(C2CCOCC2)nn1 [Example 4.40, (2R,3R,4S,5R,6R)-2-(hydroxymethyl)-5-methoxy-6-((4-(tetrahydro-2H-pyran-4-yl)-1H-1,2,3-triazol-1-yl)methyl)-4-(4-(3,4,5-trifluorophenyl)-1H-1,2,3-triazol-1-yl)tetrahydro-2H-pyran-3-ol]"
6.10,5.58,"CO[C@@H]1[C@@H](n2cc(-c3cc(F)c(F)c(F)c3)nn2)[C@@H](O)[C@@H](CO)O[C@@H]1Cn1cc(C2=CCCC2)nn1 [Example 4.42, (2R,3R,4S,5R,6R)-6-((4-(cyclopent-1-en-1-yl)-1H-1,2,3-triazol-1-yl)methyl)-2-(hydroxymethyl)-5-methoxy-4-(4-(3,4,5-trifluorophenyl)-1H-1,2,3-triazol-1-yl)tetrahydro-2H-pyran-3-ol]"
6.62,4.82,"CO[C@@H]1[C@@H](n2cc(-c3cc(F)c(F)c(F)c3)nn2)[C@@H](O)[C@@H](CO)O[C@@H]1Cn1cc(C(C)(C)O)nn1 [Example 4.44, (2R,3R,4S,5R,6R)-2-(hydroxymethyl)-6-((4-(2-hydroxypropan-2-yl)-1H-1,2,3-triazol-1-yl)methyl)-5-methoxy-4-(4-(3,4,5-trifluorophenyl)-1H-1,2,3-triazol-1-yl)tetrahydro-2H-pyran-3-ol]"
7.35,6.51,"CO[C@@H]1[C@@H](n2cc(-c3ccc(F)c(F)c3F)nn2)[C@@H](O)[C@@H](CO)O[C@@H]1Cc1cn(C(C)(C)C)nn1 [Example 4.46, (2R,3R,4S,5R,6R)-6-((1-(tert-butyl)-1H-1,2,3-triazol-4-yl)methyl)-2-(hydroxymethyl)-5-methoxy-4-(4-(2,3,4-trifluorophenyl)-1H-1,2,3-triazol-1-yl)tetrahydro-2H-pyran-3-ol]"
6.48,5.51,"CO[C@@H]1[C@@H](n2cc(-c3cc(F)c(F)c(F)c3)nn2)[C@@H](O)[C@@H](CO)O[C@@H]1Cn1cc(C2(O)CCCCC2)nn1 [Example 4.47, (2R,3R,4S,5R,6R)-6-((4-(1-hydroxycyclohexyl)-1H-1,2,3-triazol-1-yl)methyl)-2-(hydroxymethyl)-5-methoxy-4-(4-(3,4,5-trifluorophenyl)-1H-1,2,3-triazol-1-yl)tetrahydro-2H-pyran-3-ol]"
6.60,5.54,"CO[C@@H]1[C@@H](n2cc(-c3cc(F)c(F)c(F)c3)nn2)[C@@H](O)[C@@H](CO)O[C@@H]1Cn1cc(C2CCCC2)nn1 [Example 4.48, (2R,3R,4S,5R,6R)-6-((4-cyclopentyl-1H-1,2,3-triazol-1-yl)methyl)-2-(hydroxymethyl)-5-methoxy-4-(4-(3,4,5-trifluorophenyl)-1H-1,2,3-triazol-1-yl)tetrahydro-2H-pyran-3-ol]"
7.28,6.14,"CO[C@@H]1[C@@H](n2cc(-c3ccc(C)c(F)c3F)nn2)[C@@H](O)[C@@H](CO)O[C@@H]1Cc1cn(C(C)(C)C)nn1 [Example 4.52, (2R,3R,4S,5R,6R)-6-((1-(tert-butyl)-1H-1,2,3-triazol-4-yl)methyl)-4-(4-(2,3-difluoro-4-methylphenyl)-1H-1,2,3-triazol-1-yl)-2-(hydroxymethyl)-5-methoxytetrahydro-2H-pyran-3-ol]"
7.47,6.12,"CO[C@@H]1[C@@H](n2cc(-c3ccc(Cl)c(F)c3F)nn2)[C@@H](O)[C@@H](CO)O[C@@H]1Cc1cn(C(C)(C)C)nn1 [Example 4.53, (2R,3R,4S,5R,6R)-6-((1-(tert-butyl)-1H-1,2,3-triazol-4-yl)methyl)-4-(4-(4-chloro-2,3-difluorophenyl)-1H-1,2,3-triazol-1-yl)-2-(hydroxymethyl)-5-methoxytetrahydro-2H-pyran-3-ol]"
6.48,6.52,"CO[C@@H]1[C@@H](n2cc(-c3cc(F)c(F)c(F)c3)nn2)[C@@H](O)[C@@H](CO)O[C@@H]1C[C@@H]1CN(C2CCN(C(C)=O)CC2)C(=O)O1 [Example 5.05, (R)-3-(1-acetylpiperidin-4-yl)-5-(((2R,3R,4S,5R,6R)-5-hydroxy-6-(hydroxymethyl)-3-methoxy-4-(4-(3,4,5-trifluorophenyl)-1H-1,2,3-triazol-1-yl)tetrahydro-2H-pyran-2-yl)methyl)oxazolidin-2-one]"
